Patent US10093656B2, “Fused-ring or tricyclic aryl pyrimidine compound used as kinase inhibitor” (NANJING SANHOME PHARMACEUTICAL CO., LTD, priority 2015, dated 2018)
pIC50: −log10 of the molar value.

Assays:
EGFR T790M/L858R = molecular target: T1, EGFR T790M/L858R (Homo sapiens, UniProt P00533, L858R/T790M); assay: EGFR T790M/L858R enzyme HTRF inhibition assay; type: biochemical; conditions: 20 μM ATP, read-out: EGFR L858R/T79M IC50
T1 construct: purchased Life technology (Madison, Wis.)
Summary of the method: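 HTRF assay with 0.04 nM enzyme, 1 μM biotin-TK1 peptide and 20 μM ATP, 60 min at 23° C. Product detected with Eu-anti-TK1 antibody/XL665 (60 min at 23° C); compound at 10 doses, 300 nM to 0.015 nM final. IC50 from four-parameter fit.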

A431 cells EGFR WT = assay: A431 cell viability assay (Cell Titer-Glo, 6 days); type: cell-based, human
Summary of the method: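 A431 (EGFR WT) and NCI-H1975 (EGFR L858R/T790M) cells treated for 6 days at 37° C, in duplicate with 10 three-fold doses from 10 μM to 0.508 nM final. Viability read as CellTiter-Glo luminescence. IC50 from four-parameter fit of % inhibition.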

EGFR wild type = molecular target: T2, EGFR wild type (Homo sapiens, UniProt P00533); assay: Wild-type EGFR enzyme HTRF inhibition assay; type: biochemical; conditions: 25 μM ATP, read-out: EGFR WT IC50
T2 construct: purchased Life technology (Madison, Wis.)
T2 sequence (P00533 25-1210): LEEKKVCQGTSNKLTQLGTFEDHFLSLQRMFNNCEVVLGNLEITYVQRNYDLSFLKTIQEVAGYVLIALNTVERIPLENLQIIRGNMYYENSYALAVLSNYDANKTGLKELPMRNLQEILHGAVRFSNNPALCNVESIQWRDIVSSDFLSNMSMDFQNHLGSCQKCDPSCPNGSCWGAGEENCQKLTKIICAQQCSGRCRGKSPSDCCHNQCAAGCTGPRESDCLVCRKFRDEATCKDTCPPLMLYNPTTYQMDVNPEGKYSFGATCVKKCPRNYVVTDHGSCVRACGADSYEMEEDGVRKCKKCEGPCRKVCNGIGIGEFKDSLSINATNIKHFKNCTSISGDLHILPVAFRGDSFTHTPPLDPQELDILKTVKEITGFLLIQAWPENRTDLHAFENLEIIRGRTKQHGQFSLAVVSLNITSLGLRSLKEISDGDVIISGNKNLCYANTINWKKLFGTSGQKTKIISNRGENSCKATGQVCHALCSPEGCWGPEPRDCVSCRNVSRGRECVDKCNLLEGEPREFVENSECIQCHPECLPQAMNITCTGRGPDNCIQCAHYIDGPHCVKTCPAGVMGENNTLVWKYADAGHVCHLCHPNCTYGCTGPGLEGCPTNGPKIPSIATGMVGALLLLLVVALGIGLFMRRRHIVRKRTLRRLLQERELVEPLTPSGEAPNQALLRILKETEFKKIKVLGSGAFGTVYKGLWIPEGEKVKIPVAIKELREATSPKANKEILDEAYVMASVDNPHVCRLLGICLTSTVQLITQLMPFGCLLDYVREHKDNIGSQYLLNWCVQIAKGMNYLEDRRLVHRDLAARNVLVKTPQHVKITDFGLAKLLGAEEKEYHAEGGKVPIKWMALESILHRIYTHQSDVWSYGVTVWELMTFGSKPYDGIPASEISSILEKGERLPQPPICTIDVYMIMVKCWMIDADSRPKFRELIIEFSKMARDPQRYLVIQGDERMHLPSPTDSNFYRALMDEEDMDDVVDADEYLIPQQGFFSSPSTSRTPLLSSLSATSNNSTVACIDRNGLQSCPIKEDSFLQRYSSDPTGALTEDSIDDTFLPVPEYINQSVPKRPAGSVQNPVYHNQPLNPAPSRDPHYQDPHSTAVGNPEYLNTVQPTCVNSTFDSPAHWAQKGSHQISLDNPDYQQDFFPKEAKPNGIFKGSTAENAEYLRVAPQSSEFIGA
Summary of the method: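 HTRF with 0.05 nM wild-type EGFR, 1 μM biotin-TK1 peptide, 25 μM ATP, 60 min at 23° C; detected with Eu-anti-TK1 antibody 2 nM and XL665 62.5 nM, 60 min at 23° C. Ten 3-fold doses, 300 nM to 0.015 nM final; IC50 by four-parameter fit of % inhibition.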

T1 sequence (P00533 25-1210 T790M/L858R): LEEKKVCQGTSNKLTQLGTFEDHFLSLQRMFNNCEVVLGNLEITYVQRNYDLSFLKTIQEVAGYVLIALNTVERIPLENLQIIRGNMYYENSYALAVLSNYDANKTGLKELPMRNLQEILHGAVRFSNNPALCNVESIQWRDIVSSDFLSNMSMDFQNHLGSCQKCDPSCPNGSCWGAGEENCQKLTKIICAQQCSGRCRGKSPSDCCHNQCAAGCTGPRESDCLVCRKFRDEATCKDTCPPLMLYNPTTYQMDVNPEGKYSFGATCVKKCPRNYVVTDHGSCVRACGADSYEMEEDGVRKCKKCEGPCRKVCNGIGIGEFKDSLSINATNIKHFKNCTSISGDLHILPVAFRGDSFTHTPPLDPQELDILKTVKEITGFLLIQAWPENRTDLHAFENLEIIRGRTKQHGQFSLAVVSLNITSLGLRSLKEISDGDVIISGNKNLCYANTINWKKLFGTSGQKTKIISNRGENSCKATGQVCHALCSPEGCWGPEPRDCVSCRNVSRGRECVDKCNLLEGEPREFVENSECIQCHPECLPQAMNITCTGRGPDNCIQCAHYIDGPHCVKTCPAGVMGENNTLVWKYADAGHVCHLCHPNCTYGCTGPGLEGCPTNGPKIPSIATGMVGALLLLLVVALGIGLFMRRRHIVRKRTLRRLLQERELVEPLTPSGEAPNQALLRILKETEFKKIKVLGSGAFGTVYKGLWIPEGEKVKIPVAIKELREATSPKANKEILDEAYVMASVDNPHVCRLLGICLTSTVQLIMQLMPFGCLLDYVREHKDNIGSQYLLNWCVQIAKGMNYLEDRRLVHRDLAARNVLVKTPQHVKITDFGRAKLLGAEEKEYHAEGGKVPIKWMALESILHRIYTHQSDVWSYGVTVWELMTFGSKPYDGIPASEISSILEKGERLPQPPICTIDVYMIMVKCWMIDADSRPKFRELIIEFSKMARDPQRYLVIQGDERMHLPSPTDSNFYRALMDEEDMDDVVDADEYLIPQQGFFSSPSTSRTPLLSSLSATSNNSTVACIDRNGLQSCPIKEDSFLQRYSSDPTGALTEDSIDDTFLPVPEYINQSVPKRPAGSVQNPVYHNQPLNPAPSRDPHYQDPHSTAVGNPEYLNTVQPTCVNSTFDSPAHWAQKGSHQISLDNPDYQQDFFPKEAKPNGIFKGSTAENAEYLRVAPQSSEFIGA

C=CC(=O)Nc1cc(Nc2ncc(F)c(-c3c4n(c5cc(F)ccc35)CCOC4)n2)c(OC)cc1N(C)CCN(C)C [Embodiment 33, N-(2-((2-(Dimethylamino)ethyl)(methyl)amino)-5-((5-fluoro-4-(7-fluoro-3,4-dihydro-1H-[1,4]oxazino[4,3-a]indol-10-yl)pyrimidin-2-yl)amino)-4-methoxyphenyl)acrylamide]
pIC50 (EGFR T790M/L858R): 9.30
pIC50 (A431 cells EGFR WT; Homo sapiens, A-431, 144 h, A431 cells, 6 days): 6.16
A431:NCI-H1975 (ratio) (A431 cells EGFR WT; ratio of cell IC50 A431 to NCI-H1975): 7.7
pIC50 (EGFR wild type): 8.59
